{"source": "patent US7241613B1", "about": "“Identification of Candida cell surface proteins and their uses” (priority 2002, dated 2007)", "molecules": {"B1": {"name": "Mycograb: monoclonal antibodies directed against hsp90 in clinical trials for systemic candidiasis (antibody, chains of the INN, looked up, V domains shown)", "VH": "EVQLVESGAEVKKPGESLRISCKGSGCIISSYWISWVRQMPGKGLEWMGKIDPGDSYINYSPSFQGHVTISADKSINTAYLQWNSLKASDTAMYYCARGGRDFGDSFDYWGQGTLVTVSS", "VL": "DVVMTQSPSFLSAFVGDRITITCRASSGISRYLAWYQQAPGKAPKLLIYAASTLQTGVPSRFSGSGSGTEFTLTINSLQPEDFATYYCQHLNSYPLTFGGGTKVDIK", "modifications": "scFv", "notes": "monoclonal antibodies directed against hsp90 in clinical trials for systemic candidiasis"}}, "key": {"[1]": {"tested_on": "C. albicans csf null mutants, clinical isolate and parental strain", "assay": "Antifungal susceptibility assay (MIC, NCCLS M27A)", "type": "cell-based, Candida albicans", "settings": "all isolates, RPMI 1640, 35° C., 48 hours", "description": "Assays were performed at the Center for Medical Mycology, University Hospitals of Cleveland to investigate whether the csf null mutants show a higher susceptibility to antifungals when compared to wild-type. The minimum inhibitory concentrations (MIC) of three antifungal agents, amphotericin B, fluconazole and micafungin, against each fungal isolate were determined according to the NCCLS M27A standard for susceptibility testing of yeasts. […] The MIC endpoint was defined as the lowest concentration that inhibits 80% of fungal growth as compared to the growth control, for fluconazole and micafungin, and 100% inhibition for amphotericin B.\nIn order to investigate more extensively the effects induced by the loss of the targeted genes on the cell wall (e.g. cell wall permeability), we tested whether the mutant strains were more susceptible to antifungal drugs. Three different antifungal agents were tested at Cleaveland: one polyene (Amphotericin B; a compound that binds to ergosterols and increases membrane permeability), one azole (Fluconazole; a compound that interferes with the ergosterol biosynthesis pathway) and one echinochandin (Micafungin; a compound that inhibits the β-glucan synthetase). No differences in MIC were detected. The MIC of amphotericin B against all isolates, including the clinical isolate and parental strain, was 0.5-1 μg/ml."}, "[2]": {"tested_on": "Sap2p, Sap1p, Sap1p and Sap1p", "settings": "in micromolar concentrations; cited from earlier work"}, "[3]": {"tested_on": "C. albicans null mutants", "assay": "Sensitivities to calcofluor white, SDS or NaCl (spotting cells on YPD plates)", "type": "cell-based, Candida albicans", "settings": "for NaCl sensitivity: 1-3 M NaCl; for NaCl sensitivity / Calcofluor white (CW) sensitivity: YPD plates, 37° C.; for Calcofluor white (CW) sensitivity: 3-25 μg/ml CW", "description": "To investigate the effect of gene disruption on cell wall integrity and remodeling, we tested the sensitivity of all csf null mutants to calcofluor white (CW; Fluorescent Brightener 28-Sigma), SDS or NaCl by spotting cells on plates. Exponential cultures were harvested and adjusted to an OD600 of 0.24. 2.5 μl of samples plus three to four tenfold serial dilutions were deposited on the surface of YPD plates containing increasing concentrations of the compound: 3-25 μg/ml CW, 1-3 M NaCl, 0.01-0.5% SDS. […]\nWe further characterized the mutants by determining their susceptibility to calcofluor white, SDS and NaCl. The first column contains the name of the strains.\nTo go further in the analysis, we decided to test cells for their ability to respond to hyperosmotic stresses that require cell wall remodeling and integrity."}, "[4]": {"biological_target": "hsp90 (Candida albicans, UniProt P46598)", "sequence (P46598 whole entry)": "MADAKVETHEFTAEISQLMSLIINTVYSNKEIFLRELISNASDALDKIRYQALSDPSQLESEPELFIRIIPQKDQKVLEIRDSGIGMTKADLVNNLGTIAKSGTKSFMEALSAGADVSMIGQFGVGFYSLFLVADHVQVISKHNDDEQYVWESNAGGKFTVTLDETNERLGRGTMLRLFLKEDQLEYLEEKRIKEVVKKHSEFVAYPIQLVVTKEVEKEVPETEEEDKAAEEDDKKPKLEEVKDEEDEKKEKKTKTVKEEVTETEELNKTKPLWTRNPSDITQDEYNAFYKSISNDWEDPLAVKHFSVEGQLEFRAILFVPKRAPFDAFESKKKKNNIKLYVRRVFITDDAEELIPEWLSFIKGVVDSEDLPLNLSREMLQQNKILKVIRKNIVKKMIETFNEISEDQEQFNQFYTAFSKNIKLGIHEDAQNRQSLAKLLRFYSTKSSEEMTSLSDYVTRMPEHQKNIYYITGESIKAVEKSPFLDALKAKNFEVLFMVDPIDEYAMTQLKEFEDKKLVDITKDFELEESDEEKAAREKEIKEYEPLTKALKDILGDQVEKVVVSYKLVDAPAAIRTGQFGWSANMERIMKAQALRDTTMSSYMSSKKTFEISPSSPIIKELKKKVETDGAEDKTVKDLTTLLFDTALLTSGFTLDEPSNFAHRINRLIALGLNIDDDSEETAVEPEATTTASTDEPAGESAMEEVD", "settings": "first stage of double-blind Phase II trial, systemic candidiasis; cited from earlier work"}, "[5]": {"settings": "Candida albicans, endpoint 80% inhibition of fungal growth, read-out: MIC"}, "[6]": {"settings": "6.1231 null mutant vs wild type"}, "[7]": {"settings": "6.1639 null mutant vs wild type"}, "[8]": {"settings": "6.3873 null mutant vs wild type"}}, "note": "Like-named read-outs stand apart in the source and are kept apart here. Starred links: 1 amine or outer side, 2 acyl side, 3 side chain; linkers in the order of their positions; H or OH if unused. Positions of bridges follow the written chain, without caps; N, C: chain ends. Non-standard residues stand in square brackets, D forms with d. Residues, ends and D or L forms follow the SMILES beside them. *: point of attachment. hTyr(3S-OH,4S-OH,3'-OSO3H) = N[C@H](C(=O)O)[C@H](O)[C@@H](O)c1ccc(O)c(OS(=O)(=O)O)c1; Orn(4R-OH,5R-OH) = O=C([C@H](C[C@@H](O)[C@@H](O)N[*:3])N[*:1])[*:2]; Pro(3S-OH,4S-Me) = C[C@H]1CN[C@H](C(=O)O)[C@H]1O; X1 = CCCCCOc1ccc(-c2cc(-c3ccc(C(=O)*)cc3)no2)cc1; Gln(3R-OH) = NC(=O)C[C@@H](O)[C@H](N)C(=O)O; Hyp = O=C(O)[C@@H]1C[C@@H](O)CN1"}
{"molecule": "C[C@@H]1[C@H](O)[C@@H](C)/C=C/C=C/C=C/C=C/C=C/C=C/C=C/[C@H](O[C@@H]2O[C@H](C)[C@@H](O)[C@H](N)[C@@H]2O)C[C@@H]2O[C@](O)(C[C@@H](O)C[C@@H](O)[C@H](O)CC[C@@H](O)C[C@@H](O)CC(=O)O[C@H]1C)C[C@H](O)[C@H]2C(=O)O", "note": "[amphotericin B]", "values": [{"measurement": "MIC", "setting": "[1]; including the clinical isolate and parental strain, endpoint 100% inhibition", "result": "0.5 to 1", "unit": "µg/mL"}]}
{"molecule": "OC(Cn1cncn1)(Cn1cncn1)c1ccc(F)cc1F", "note": "[fluconazole]", "values": [{"measurement": "MIC", "setting": "[1]; [5]", "result": 0.25, "unit": "µg/mL"}]}
{"molecule": "CC(C)c1nc(CN(C)C(=O)N[C@H](C(=O)N[C@@H](Cc2ccccc2)C[C@H](O)[C@H](Cc2ccccc2)NC(=O)OCc2cncs2)C(C)C)cs1", "note": "[ritonavir]", "values": [{"measurement": "inhibition of the activity of Sap2p, Sap1p, Sap1p and Sap1p", "setting": "[2]", "result": "inhibit the activity"}]}
{"molecule": "CC(C)(C)NC(=O)[C@@H]1C[C@@H]2CCCC[C@@H]2CN1C[C@@H](O)[C@H](Cc1ccccc1)NC(=O)[C@H](CC(N)=O)NC(=O)c1ccc2ccccc2n1", "note": "[saquinavir]", "values": [{"measurement": "inhibition of the activity of Sap2p, Sap1p, Sap1p and Sap1p", "setting": "[2]", "result": "inhibit the activity"}]}
{"molecule": "CCCCCOc1ccc(-c2cc(-c3ccc(C(=O)N[C@H]4C[C@@H](O)[C@@H](O)NC(=O)[C@@H]5[C@@H](O)[C@@H](C)CN5C(=O)[C@H]([C@H](O)CC(N)=O)NC(=O)[C@H]([C@H](O)[C@@H](O)c5ccc(O)c(OS(=O)(=O)O)c5)NC(=O)[C@@H]5C[C@@H](O)CN5C(=O)[C@H]([C@@H](C)O)NC4=O)cc3)no2)cc1", "note": "[micafungin] (X1-[Orn(4R-OH,5R-OH)]T[Hyp][hTyr(3S-OH,4S-OH,3'-OSO3H)][Gln(3R-OH)][Pro(3S-OH,4S-Me)]; lactam 1-C)", "values": [{"measurement": "MIC", "setting": "[1]; [5]", "result": 0.008, "unit": "µg/mL"}]}
{"molecule": "CCCCCCCCCCCCOS(=O)(=O)[O-].[Na+]", "note": "[SDS, sodium dodecyl sulfate]", "values": [{"measurement": "sensitivity to SDS", "setting": "[3]; mp65Δ, 6.1639Δ and sap9Δ, increasing concentrations of SDS (0-0.5%), 24 h at 37° C.", "result": "hypersensitive"}]}
{"molecule": "[Cl-].[Na+]", "note": "[NaCl]", "values": [{"measurement": "NaCl sensitivity", "setting": "[3]; [6]", "result": "+"}, {"measurement": "NaCl sensitivity", "setting": "[3]; [7]", "result": "+"}, {"measurement": "NaCl sensitivity", "setting": "[3]; [8]", "result": "+"}, {"measurement": "sensitivity to NaCl (hyperosmotic stress)", "setting": "[3]; all six csf mutants, increasing NaCl concentration (0-3M), 24 h at 37° C.", "result": "as sensitive as the parental strain"}, {"measurement": "NaCl sensitivity", "setting": "[3]; als1 null mutant vs wild type", "result": "+"}, {"measurement": "NaCl sensitivity", "setting": "[3]; hwp1 null mutant vs wild type", "result": "+"}, {"measurement": "NaCl sensitivity", "setting": "[3]; mp65 null mutant vs wild type", "result": "+"}, {"measurement": "NaCl sensitivity", "setting": "[3]; pra1 null mutant vs wild type", "result": "+"}, {"measurement": "NaCl sensitivity", "setting": "[3]; sap9 null mutant vs wild type", "result": "+"}]}
{"molecule": "O=S(=O)(O)c1cc(Nc2nc(Nc3ccccc3)nc(N(CCO)CCO)n2)ccc1/C=C/c1ccc(Nc2nc(Nc3ccccc3)nc(N(CCO)CCO)n2)cc1S(=O)(=O)O", "note": "[Calcofluor white, calcofluor white]", "values": [{"measurement": "Calcofluor white (CW) sensitivity", "setting": "[3]; [6]", "result": "+++"}, {"measurement": "growth in the presence of calcofluor", "setting": "[3]; 6.1231Δ, 25 μg/ml calcofluor", "result": "no more cells were growing"}, {"measurement": "Calcofluor white (CW) sensitivity", "setting": "[3]; [7]", "result": "+"}, {"measurement": "Calcofluor white (CW) sensitivity", "setting": "[3]; [8]", "result": "++"}, {"measurement": "Calcofluor white (CW) sensitivity", "setting": "[3]; als1 null mutant vs wild type", "result": "+"}, {"measurement": "Calcofluor white (CW) sensitivity", "setting": "[3]; hwp1 null mutant vs wild type", "result": "+"}, {"measurement": "Calcofluor white (CW) sensitivity", "setting": "[3]; mp65 null mutant vs wild type", "result": "+++"}, {"measurement": "sensitivity to calcofluor white", "setting": "[3]; mp65Δ", "result": "highly sensitive"}, {"measurement": "Calcofluor white (CW) sensitivity", "setting": "[3]; pra1 null mutant vs wild type", "result": "++"}, {"measurement": "Calcofluor white (CW) sensitivity", "setting": "[3]; sap9 null mutant vs wild type", "result": "+"}]}
{"molecule": "B1", "values": [{"measurement": "serious adverse events", "setting": "[4]", "result": "No serious adverse events"}]}
